# Source: ChEMBL document CHEMBL5046231, “Modulation of Naturally Occurring Linear Dipeptide Chirality to Reduce the Affinity for Oligopeptide Transporter 1 and Increase Intestinal Stability for an Enhanced Colon-Targeting Effect in the Treatment of Inflammatory Bowel Disease: An Application of trans-4-l-Hydroxyprolyl-l-serine” (J Med Chem, 2022)
# Calls of active or inactive are those of the source. No cut-off for these calls is given here.
# Assays:
# Mus musculus [1] = assay: Antiinflammatory activity in DSS-induced C57BL/6 mouse model of colitis assessed as decrease in IL-1beta level 25 to 100 mg/kg, po administered via gavage twice a day for 10 days; format: functional, organism-based; conditions: dose 25-100 mg/kg, time 10.0 day
# [2] = target: T1, Solute carrier family 15 member 1 (Homo sapiens, UniProt P46059); assay: Substrate activity at PEPT1 in human Caco-2 cells assessed as inhibition of Gly-Sar substrate uptake by UPLC-MS/MS analysis; format: cell-based; conditions: human, caco-2
# T1 sequence (P46059 whole entry): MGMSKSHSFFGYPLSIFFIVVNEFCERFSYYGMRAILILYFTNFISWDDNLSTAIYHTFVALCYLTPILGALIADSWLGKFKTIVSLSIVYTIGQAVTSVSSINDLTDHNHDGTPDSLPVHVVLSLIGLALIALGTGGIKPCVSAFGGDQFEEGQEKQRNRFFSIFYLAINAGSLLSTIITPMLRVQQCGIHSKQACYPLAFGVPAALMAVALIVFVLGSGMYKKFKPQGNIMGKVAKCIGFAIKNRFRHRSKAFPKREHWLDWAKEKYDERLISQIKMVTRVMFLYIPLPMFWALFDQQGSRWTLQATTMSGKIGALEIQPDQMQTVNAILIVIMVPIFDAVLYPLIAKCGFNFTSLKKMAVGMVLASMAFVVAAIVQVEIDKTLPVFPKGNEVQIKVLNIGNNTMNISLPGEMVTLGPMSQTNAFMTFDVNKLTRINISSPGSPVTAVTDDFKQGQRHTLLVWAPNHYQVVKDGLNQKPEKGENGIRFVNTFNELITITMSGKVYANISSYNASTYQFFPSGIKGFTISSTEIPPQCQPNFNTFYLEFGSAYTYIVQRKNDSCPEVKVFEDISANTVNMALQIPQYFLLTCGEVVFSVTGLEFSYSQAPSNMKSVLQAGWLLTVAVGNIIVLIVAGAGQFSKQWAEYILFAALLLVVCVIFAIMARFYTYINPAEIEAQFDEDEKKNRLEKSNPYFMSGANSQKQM
# Mus musculus [3] = assay: Anti-colitis activity against DSS-induced colitis in C57BL/6 mouse model assessed as decrease in MPO level in colon at 50 mg/kg, po administered via gavage twice a day for 10 days; format: functional; set-up: scale not given: the % may be the effect or the level left; conditions: time 10 day
# [4] = Metabolic stability in DSS-induced C57BL/6 mouse jejunum assessed as half life measured up to 12 hrs by HPLC analysis; format: ADME, tissue-based
# Mus musculus [5] = assay: Antiinflammatory activity in DSS-induced C57BL/6 mouse model of colitis assessed as increase in IL-10 level 25 to 100 mg/kg, po administered via gavage twice a day for 10 days; format: functional, organism-based; conditions: dose 25-100 mg/kg, time 10.0 day
# [6] = Cmax in healthy C57BL/6 mouse at 25 mg/kg, po measured up to 6 hrs by UPLC-MS/MS analysis; format: ADME, organism-based; set-up: route oral, dose 25 mg/kg, time <=6; conditions: in vivo
# Mus musculus [7] = assay: Anti-colitis activity against DSS-induced colitis in C57BL/6 mouse model assessed as decrease in MPO level in colon at 25 mg/kg, po administered via gavage twice a day for 10 days; format: functional; set-up: scale not given: the % may be the effect or the level left; conditions: time 10 day
# Mus musculus [8] = assay: Antiinflammatory activity in DSS-induced C57BL/6 mouse model of colitis assessed as decrease in TNF-alpha level 25 to 100 mg/kg, po administered via gavage twice a day for 10 days; format: functional, organism-based; conditions: dose 25-100 mg/kg, time 10.0 day
# [9] = Chemical stability in phosphate buffer at pH 7.2 assessed as half life measured up to 12 hrs by HPLC analysis; format: physicochemical
# Mus musculus [10] = assay: Anti-colitis activity against DSS-induced C57BL/6 mouse model of colitis assessed as fold change in body weight recovery at 25 to 100 mg/kg, po administered via gavage twice a day for 10 days relative to SASP; format: functional; conditions: dose 25-100 mg/kg; time 10 day
# [11] = Toxicity in healthy C57BL/6 mouse assessed as histological changes in liver at 100 mg/kg, po administered for 10 days by H and E staining based assay; format: organism-based; conditions: in vivo, 240 h, time 10 day
# [12] = Stability in human Caco-2 cells homogenate assessed as half life measured up to 12 hrs by HPLC analysis; format: ADME, cell-based; conditions: Caco-2 cell homogenate
# [13] = Chemical stability in acetate buffer at pH 4.5 assessed as half life measured up to 12 hrs by HPLC analysis; format: physicochemical
# [14] = Chemical stability in 0.1 M HCl at pH 1.2 assessed as half life measured up to 12 hrs by HPLC analysis; format: physicochemical
# [15] = Toxicity in healthy C57BL/6 mouse assessed as histological changes in kidney at 100 mg/kg, po administered for 10 days by H and E staining based assay; format: organism-based; conditions: in vivo, 240 h, time 10 day
# Mus musculus [16] = assay: Anti-colitis activity against DSS-induced C57BL/6 mouse model of colitis assessed as restoration of intestinal barrier function by measuring fold increase in FITC-dextran level in plasma at 25 mg/kg, po administered via gavage twice a day for 10 days followed by FITC-dextran addition and measured after 4 hrs; format: functional; conditions: time 10 day
# [17] = Stability in simulated intestinal fluid at pH 6.8 assessed as half life measured up to 12 hrs by HPLC analysis; format: ADME
# [18] = Tmax in healthy C57BL/6 mouse at 25 mg/kg, po measured up to 6 hrs by UPLC-MS/MS analysis; format: ADME, organism-based; conditions: in vivo
# [19] = Metabolic stability in healthy C57BL/6 mouse plasma assessed as half life measured up to 12 hrs by HPLC analysis; format: ADME, cell-free
# Mus musculus [20] = assay: Anti-colitis activity against DSS-induced colitis in C57BL/6 mouse model assessed as fold decrease in disease activity index at 25 mg/kg, po administered via gavage twice daily for 10 days relative to control; format: functional; conditions: time 10 day
# [21] = Toxicity in healthy C57BL/6 mouse assessed as change in body weight at 100 mg/kg, po administered for 10 days; format: organism-based; conditions: in vivo, 240 h, time 10 day
# Mus musculus [22] = assay: Anti-colitis activity against DSS-induced C57BL/6 mouse model of colitis assessed as decrease in MPO level in colon at 100 mg/kg, po administered via gavage twice a day for 10 days; format: functional; set-up: scale not given: the % may be the effect or the level left; conditions: time 10 day
# [23] = AUC (0 to 6 hrs) in healthy C57BL/6 mouse at 25 mg/kg, po measured up to 6 hrs by UPLC-MS/MS analysis; format: ADME, organism-based; set-up: route oral, dose 25 mg/kg, time <=6; conditions: in vivo
# [24] = Metabolic stability in healthy C57BL/6 mouse colon assessed as half life measured up to 12 hrs by HPLC analysis; format: ADME, tissue-based
# Mus musculus [25] = assay: Anti-colitis activity against DSS-induced C57BL/6 mouse model of colitis assessed as fold change in colon length at 25 to 100 mg/kg, po administered via gavage twice a day for 10 days relative to SASP; format: functional; conditions: dose 25-100 mg/kg; time 10 day
# [26] = Metabolic stability in healthy C57BL/6 mouse jejunum assessed as half life measured up to 12 hrs by HPLC analysis; format: ADME, tissue-based
# [27] = Toxicity in healthy C57BL/6 mouse assessed as histological changes in spleen at 100 mg/kg, po administered for 10 days by H and E staining based assay; format: organism-based; conditions: in vivo, 240 h, time 10 day
# [28] = Metabolic stability in healthy C57BL/6 mouse liver assessed as half life measured up to 12 hrs by HPLC analysis; format: ADME, tissue-based
# [29] = Metabolic stability in DSS-induced C57BL/6 mouse colon assessed as half life measured up to 12 hrs by HPLC analysis; format: ADME, tissue-based
# Mus musculus [30] = assay: Anti-colitis activity against DSS-induced colitis in C57BL/6 mouse model assessed as increase in colon length at 25 mg/kg, po administered via gavage twice daily for 10 days; format: functional, organism-based; conditions: time 10.0 day
compound,measurement,setting,value
O=C(O)[C@@H](CO)NC(=O)[C@H]1C[C@@H](O)CN1,Activity,Mus musculus [1],Active
same,inhibition (INH),[2],Not Active
same,Activity,Mus musculus [3],47.5%
same,half-life,[4],> 12 h
same,Activity,Mus musculus [5],Active
same,Cmax,[6],5.79 µM
same,Activity,Mus musculus [7],72.8%
same,Activity,Mus musculus [8],Active
same,half-life,[9],> 12 h
same,fold change (FC),Mus musculus [10],2.1
same,Activity,[11],Non-Toxic
same,half-life,[12],> 12 h
same,half-life,[13],> 12 h
same,half-life,[14],> 12 h
same,Activity,[15],Non-Toxic
same,fold change (FC),Mus musculus [16],10.7
same,half-life,[17],> 12 h
same,Tmax,[18],4 h
same,half-life,[19],> 12 h
same,fold change (FC),Mus musculus [20],1.5
same,Activity,[21],Non-Toxic
same,Activity,Mus musculus [22],59.7%
same,AUC,[23],16.61 microM/L.hr
same,half-life,[24],> 12 h
same,fold change (FC),Mus musculus [25],1.2
same,half-life,[26],> 12 h
same,Activity,[27],Non-Toxic
same,half-life,[28],> 12 h
same,half-life,[29],> 12 h
same,Activity,Mus musculus [30],Active
